In ChEMBL document CHEMBL5215000, “Seco B-Type Oligomers from Pinus massoniana Expand the Procyanidin Chemical Space and Exhibit Dental Bioactivity” (2022):

These molecules were tested on Dentine (assay: Bio-modification of human mid coronal dentine assessed as fold change in complex modulus at 0.2% w/v incubated for 1 hrs by dynamic mechanical analysis).
Format: functional

| Structure (SMILES) | fold change (FC) |
| --- | --- |
| Oc1cc(O)c(C[C@@H]2Oc3c4c(cc(O)c3[C@H]2c2ccc(O)c(O)c2)O[C@H](c2ccc(O)c(O)c2)[C@@H](O)C4)c(O)c1 | 4.2 |
| Oc1cc(O)c(C[C@H](O)[C@H](c2ccc(O)c(O)c2)c2c(O)cc(O)c3c2O[C@@H](c2ccc(O)c(O)c2)[C@@H](O)C3)c(O)c1 | 3.3 |
| Oc1cc(O)c2c(c1)O[C@H]([C@H](c1ccc(O)c(O)c1)c1c(O)cc(O)c3c1O[C@H](c1ccc(O)c(O)c1)[C@@H](O)C3)C2 | 5.2 |
| Oc1cc(O)c(C[C@H](O)[C@H](c2ccc(O)c(O)c2)c2c(O)cc(O)c3c2O[C@H](c2ccc(O)c(O)c2)[C@@H](O)C3)c(O)c1 | 3.3 |
| Oc1cc(O)c(C[C@H](O)[C@H](c2ccc(O)c(O)c2)c2c(O)cc(O)c3c2O[C@@H](c2ccc(O)c(O)c2)[C@H](O)C3)c(O)c1 | 3.3 |
